Here are results for three molecules from US20050101671A1, “Compounds and compositions for delivering active agents” (Emisphere Technologies, Inc., priority 1995, published 2005).

A short description of data set [1]: In vivo delivery of heparin by oral administration in rats, APTT (Table 6). Details: species or system rat. The conditions noted are these: heparin 100 mg/kg. Here is the method:
In a test tube, 900 mg of carrier were dissolved in 3 mL of propylene glycol, and 0.299 g of sodium heparin was dissolved in 3 mL of water. The solutions were mixed by vortex. Sodium hydroxide (10M) was added to the resulting mixture until a solution was obtained. The pH was then adjusted to 7.4±0.5 with concentrated hydrochloric acid, and the final solution was sonicated at 40° C. for 30 minutes.
A group of fasted, conscious rats were administered the dosing compositions by oral gavage. Blood samples were collected by cardiac puncture following the administration of ketamine (44 mg/kg). Heparin activity was determined by utilizing the activated partial thromboplastim time (APTT) according to the method of Henry, J. B., Clinical Diagnosis and Management by Laboratory Methods; Philadelphia. Pa.; W B Saunders (1979).
Heparin (100 mg/kg) was administered by oral gavage to rats, and heparin activity was determined according to the procedure of Example 44.

The nature of data set [2]: In vivo delivery of rhGH in rats (Table 1), serum rhGH by ELISA. Details: species or system rat. Particulars: oral, no carrier, rhGH 6 mg/kg. Here is the method: Dosing compositions were prepared by mixing the modified amino acids and recombinant human growth hormone (rhGH) as listed in Table 1 below in a phosphate buffer solution at a pH of about 7-8.
Rats were administered the dosing composition by sublingual, oral gavage, intraduodenal administration, or colonic administration. Delivery was evaluated by using an ELISA assay for rhGH from Medix Biotech, Inc. For intracolonic administration, a sample was prepared and dosed to fasted rats at 25 mg/kg of carrier in a buffered solution containing propylene glycol (0-50%) and 1 mg/kg rhGH.

A short description of data set [3]: Delivery agent enhancement of rhGH bioavailability, subcutaneous administration in rats (Table 2). The format is in vivo, rat. The conditions noted are these: no delivery agent (0.0 mg/kg), rhGH alone (Comparative Example 16A).
Method: The delivery agents were reconstituted with distilled water and adjusted to pH 7.2-8.0 with either aqueous hydrochloric acid or aqueous sodium hydroxide. A stock solution of rhGH was prepared by mixing rhGH, D-mannitol and glycine and dissolving this mixture in 2% glycerol/water. The stock solution was then added to the delivery agent solution. Several delivery agent to active agent ratios were studied.
Male Sprague-Dawley rats weighing 200-250 g were fasted for 24 hours and administered ketamine (44 mg/kg) and chlorpromazine (1.5 mg/kg) 15 minutes prior to dosing. The rats were administered one of the dosing solutions described above by subcutaneous injection, intranasal instillation, or sublingual instillation. Blood samples were collected serially from the tail artery for serum calcium concentration determination or serum rhGH concentrations. The dose-of rhGH administered in these experiments was 0.
Serum rhGH concentrations were quantified by an rhGH enzyme immunoassay test kit.

For `O=C(O)CCCCCCCNC(=O)/C=C/c1ccccc1F` [Compound XII], the “Mean Peak APTT” value in data set [1] (carrier 300 mg/kg) amounted to 49.53 ± 17.1 s.
Heparin [reference compound]: the “Mean Peak APTT” value in data set [1] (no carrier) amounted to 20.7 ± 0.17 s.
For “rhGH: recombinant human growth hormone, active agent dosed alone as comparative example”, in data set [2], the “Mean Peak Serum Levels of rhGH” value is under 10 ± 10 ng/mL. Also, the “Peak Serum [rhGH]” value in data set [3] is given as 4 ± 2 ng/mL.
